Measurements published in patent EP3300715A1, “USE OF DIALKYLCARBONATES OF BRANCHED ALCOHOLS AS DISPERSION AGET” (BASF SE, priority 2016, dated 2018).

Assay: Pigment dispersion test: medium added dropwise to 10 g pigment until a paste forms; maximum % pigment in the medium
Type: physicochemical
Conditions: medium added dropwise to 10 g pigment (Eisenoxid, Titanoxid) until paste, no excess medium; compared with other media; shown in figure
Description: Es hat sich überraschend gezeigt, dass die erfindungsgemäß verwendeten Dialkylcarbonate gegenüber anderen Medien hervorragende Dispersionen mit Feststoffen bilden.
Das Experiment wurde wie folgt durchgeführt. Das Medium wurde tropfenweise zu 10 g Pigment (grau = Eisenoxid, dunkelgrau = Titanoxid), bis sich eine Paste gebildet hatte (kein Medium im Überschuss). Die folgende Rechnung entspricht der maximalen Menge Pigment in prozent, die in das jeweilige Medium gegeben werden kann: % Pigment = m(Pigment)/m(Pigment) + m(Medium) × 100 [formula]

Pigmentkonzentrationen (% Pigment, maximale Menge Pigment im Medium): höchsten Pigmentkonzentrationen
SMILES: CCCCCC(CCC)COC(=O)OCC(CCC)CCCCC (stereo not shown) [Di-(2-Propyl-1-heptyl)carbonat]
